The values that follow come from patent US20040058947A1, “Composition for the prevention or treatment of learning disorders in children suffering from attention deficit/hyperactive disorder” (priority 2001, published 2004).

For experiment [1], the system named is cortical neurons isolated from mouse foetuses. In words: Effect on glutamate-induced cortical neuronal toxicity. It counts as cell-based. As to conditions: monosodium glutamate 1 nmol·L^−1; L-carnitine/acetyl L-carnitine 5 nmol·L^−1, huperzine A 10 nmol·L^−1, added half an hour before glutamate; glutamate alone 20%. On the procedure:
As is known , persistent stimulation of glutamate receptors induces a neurotoxic effect leading to the death of neuronal cells: this is one of the mechanisms regarding as being responsible for the pathogenesis of Alzheimer's disease. The aim of these tests was to observe whether preincubation of cortical neuronal cells with L-carnitine+acetyl L-carnitine carnitine alone or in combination with huperzine A may lead to a reduction of glutamate-induced toxicity and to greater survival of neuronal cells. In these tests, cortical neurons isolated from mouse foetuses were used, according to the method described by Lin [Lin L., J. Nanjing Univ. (Natural Science Edition) 31:514, 1995—Lin L., Acta Pharmacol. Sinica, 17:221, 1996]. After isolating the cells, they were suspended on plates with a density of 6.4×10^8 cells/m^2 surface. To prevent proliferation of non-neuronal cells, […]. […]
The solutions of L-carnitine/acetyl L-carnitine or huperzine A were added to the Locke solution half an hour before monosodium glutamate. […] according to the procedure disclosed by Green (Green L. M., J. Immunol. Methods, 70:257, 1984).

The subject of experiment [2] is glutamate-induced spontaneous motility in mice. In words: Glutamate excitability tests (hypermotility after intracerebral glutamate). It counts as in vivo. As to conditions: treatment one hour prior, huperzine A 0.05 mg/kg, L-carnitine 200 mg/kg + acetyl L-carnitine 50 mg/kg. The source says:
Excitatory amino acids such as glutamate, if administered by intracerebral injection, produce a series of behavioural effects, the most evident of which is hypermotility.
To evaluate the effect of huperzine A and L-carnitine/acetyl L-carnitine and of a combination of these, mice received intracerebral injections of increasing doses of glutamate according to the method described by Lama (Lama E., Acta Pharmacol. Sinica, 9:252, 1988). The increase in spontaneous motility of these animals placed in a box with transparent walls was then evaluated by means of a photoelectric cell which recorded the number of passes for a period of five minutes. The motility test was conduced both in control animals and in animals treated one hour prior to injection of glutamate with huperzine A and with L-carnitine/acetyl L- carnitine and with a combination of these compounds. The results of these tests (see Table 2) indicate that treatment with huperzine A reduces the increase in motility induced by glutamate in mice, but that the greastest reduction is that obtained by administration of the combination of huperzine A and L-carnitine/acetyl L-carnitine.

Turning to `C/C=C1\[C@H]2C=C(C)C[C@]1(N)c1ccc(=O)[nH]c1C2` [huperzine A], the “survival rate of neuronal cells” value in experiment [1] came out at 30%. Also, the “N. passes in 5 min observation” value in experiment [2] (Glutamate 1 ng/mouse intracerebral, glutamate control 241 ± 35) came out at 226 ± 24; in experiment [2] (Glutamate 5 ng/mouse intracerebral, glutamate control 364 ± 39) it was 296 ± 16.
